Patent US20240050434A1, “HORMAD1 THERAPEUTICS” (Royal Cancer Hospital, priority 2020, published 2024)
Entries after “also recorded” stand apart in the source; their conditions may differ.

Assays:
[1] = tested on: RPE1 cells expressing a doxycycline-inducible HORMAD1 construct; test: Incucyte time-lapse confluence/proliferation in RPE1 cells with doxycycline-inducible HORMAD1; format: cell-based; conditions: for cellular growth / fitness of HORMAD1 expressing RPE1 cells versus vehicle-induced cells under drug: incucyte confluence, 200 nM BOS172722 or 20 nM AZD1152-HQPA 10 days, 3 μM BAY-1816032 14 days
Experimental: (§1) Cell confluence was analysed every 6 hours for 10 days, using incucyte software. Data are from 3 biological replicates and analysed using a two-way ANOVA. […] RPE1 cells expressing a doxycycline-inducible HORMAD1 expression construct were exposed to doxycycline or vehicle (H2O) and were exposed to 20 nM of the Aurora B inhibitor, AZD1152-HQPA. Cell confluence was analysed every 6 hours for 10 days, using incucyte software. Data are from 3 biological replicates and analysed using a two-way ANOVA. […] 7-10 days post drugging, cells were fixed, stained with SRB, and colonies were counted using Cell Profiler. […] 10 days post drugging, cells were fixed, stained with SRB, and colonies were counted using Cell Profiler. […] RPE1 cells expressing a doxycycline-inducible HORMAD1 expression construct were exposed to doxycycline or vehicle (H2O) and to increasing doses of the Aurora B inhibitor, AZD1152-HQPA. 7-10 days post drugging, cells were fixed, stained with SRB, and colonies were counted using Cell Profiler. […] SUM159 cells expressing a doxycycline-inducible HORMAD1 expression construct were exposed to doxycycline or vehicle (H2O) and to increasing doses of the Aurora B inhibitor, AZD1152-HQPA. 10 days post drugging, cells were fixed, stained with SRB, and colonies were counted using Cell Profiler.
RPE1 cells were reverse transfected with BUB1 or control siRNA particles for 3 days. Cell lysates were collected, and analysed by western blotting using anti-BUB1 and anti-β-ACTIN antibodies. […] RPE1 cells expressing a doxycycline-inducible HORMAD1 expression construct were exposed to doxycycline or vehicle, and were reverse transfected with BUB1 or control siRNA particles. 5 days post transfection, cellular viability was estimated using cell titer glo reagent and surviving fractions were calculated relative to DMSO treated cells. […] Statistical significance estimated using a one-way ANOVA with Sidak's correction. C. […] Cell lysates were collected, and analysed by SDS-PAGE and western blotting using anti-HORMAD1, anti-H3 and anti-BUB1 antibodies. […] 7-10 days post doxycycline induction, cells were fixed, stained with SRB, and cellular viability was estimated using SRB absorbance readings. […] Cells were fixed, stained with SRB, and cellular viability was estimated using SRB absorbance readings. […] Cells were imaged every 4 hours, and confluence was continually measured using incucyte software. […] Patient-derived organoids models were grown in culture and cell lysates collected and analysed using SDS-PAGE and western blotting using anti-HORMAD1 and anti-β-ACTIN antibodies. […] Cellular viability was estimated using cell titer glo reagent and surviving fractions were calculated relative to DMSO treated cells. […]

[2] = tested on: RPE1 cells expressing a doxycycline-inducible HORMAD1 construct; test: Clonogenic survival assay (SRB) in RPE1 cells with doxycycline-inducible HORMAD1; format: cell-based; conditions: for clonogenic survival / sensitivity of HORMAD1 expressing versus HORMAD1-negative RPE1 cells: increasing doses, 7-14 days, normalised to vehicle
Experimental: as §1
RPE1 cells were reverse transfected with BUB1 or control siRNA particles for 3 days. Cell lysates were collected, and analysed by western blotting using anti-BUB1 and anti-β-ACTIN antibodies. […] RPE1 cells expressing a doxycycline-inducible HORMAD1 expression construct were exposed to doxycycline or vehicle, and were reverse transfected with BUB1 or control siRNA particles. 5 days post transfection, cellular viability was estimated using cell titer glo reagent and surviving fractions were calculated relative to DMSO treated cells. […] Statistical significance estimated using a one-way ANOVA with Sidak's correction. C. Western blot illustrating expression of HORMAD1 in wild-type RPE1 cells and RPE1 cells depleted of BUB1 using CRISPR. WT and BUB1 depleted RPE1 cells expressing a doxycycline-inducible HORMAD1 expression construct, were exposed to doxycycline or vehicle for 3 days. Cell lysates were collected, and analysed by SDS-PAGE and western blotting using anti-HORMAD1, anti-H3 and anti-BUB1 antibodies. […] WT and BUB1 depleted RPE1 cells expressing a doxycycline-inducible HORMAD1 expression construct were exposed to doxycycline or vehicle. 7-10 days post doxycycline induction, cells were fixed, stained with SRB, and cellular viability was estimated using SRB absorbance readings. […] Statistical significance estimated using a one-way ANOVA with Sidak's correction. […] RPE1 expressing a doxycycline-inducible HORMAD1 expression construct, were exposed to doxycycline or vehicle. […] Cells were fixed, stained with SRB, and cellular viability was estimated using SRB absorbance readings. […] Cells were imaged every 4 hours, and confluence was continually measured using incucyte software. Growth curves were plotted, based on confluence. Data represent 3 biological replicas. […] Patient-derived organoids models were grown in culture and cell lysates collected and analysed using SDS-PAGE and western blotting using anti-HORMAD1 and anti-β-ACTIN antibodies. […] Cellular viability was estimated using cell titer glo reagent and surviving fractions were calculated relative to DMSO treated cells. […] Left, dose response curves for each organoid.

Row | Structure (SMILES) | confluency reached, HORMAD1 expressing RPE1 cells ([1]; 3 μM, 240 hours, incucyte) | confluency reached, RPE1 cells without HORMAD1 expression ([1]; 3 μM, 240 hours, incucyte) | cellular growth / fitness of HORMAD1 expressing RPE1 cells versus vehicle-induced cells under drug [1] | reduction of clonogenic capacity of RPE1 cells in presence of HORMAD1 expression compared to RPE1 cells not expressing HORMAD1 ([2]; 10 days post drugging) | clonogenic survival / sensitivity of HORMAD1 expressing versus HORMAD1-negative RPE1 cells [2]
1 | COc1cnccc1Nc1nc(-c2nn(Cc3c(F)cc(OCCO)cc3F)c3ccccc23)ncc1OC [BAY-1816032] | around 15% | ~85% | decreased cellular fitness | 60% | increased cellular sensitivity
2 | CCN(CCO)CCCOc1ccc2c(Nc3cc(CC(=O)Nc4cccc(F)c4)[nH]n3)ncnc2c1 [AZD1152-HQPA] |  |  | marked decrease in cellular growth; also recorded: decreased cellular fitness |  | more effectively inhibited; also recorded: reduced clonogenic survival; also recorded: increased Aurora B inhibitor sensitivity
